# According to PubChem BioAssay (NCI):
#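 Tested at 5 concentrations; 48 h exposure; 96-well plates; endpoints linearly interpolated, else capped at highest concentration. At the TGI there is no net growth.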
# How the values were obtained:
# Assay in all cases: growth of human tumour cells (NCI), 48 h
# MOLT-4 leukemia = tested on: MOLT-4 leukemia
# DU-145 prostate = tested on: DU-145 prostate
# NCI-H522 lung = tested on: NCI-H522 lung
# MDA-MB-231 breast = tested on: MDA-MB-231 breast
# OVCAR-3 ovarian = tested on: OVCAR-3 ovarian
# HS 578T breast = tested on: HS 578T breast
# T-47D breast = tested on: T-47D breast
# RPMI-8226 leukemia = tested on: RPMI-8226 leukemia
# CCRF-CEM leukemia = tested on: CCRF-CEM leukemia
# NCI-H460 lung = tested on: NCI-H460 lung
# BT-549 breast = tested on: BT-549 breast
# PC-3 prostate = tested on: PC-3 prostate
# MALME-3M melanoma = tested on: MALME-3M melanoma
# RXF 393 renal = tested on: RXF 393 renal
# EKVX NSCLC = tested on: EKVX NSCLC
# NCI-H23 lung = tested on: NCI-H23 lung
# M14 melanoma = tested on: M14 melanoma
# SF-539 CNS = tested on: SF-539 CNS
# U251 CNS = tested on: U251 CNS
# ACHN renal = tested on: ACHN renal
# COLO 205 colon = tested on: COLO 205 colon
# KM12 colon = tested on: KM12 colon
# NCI/ADR-RES ovarian = tested on: NCI/ADR-RES ovarian
# SK-MEL-2 melanoma = tested on: SK-MEL-2 melanoma
# OVCAR-5 ovarian = tested on: OVCAR-5 ovarian
# HCT-15 colon = tested on: HCT-15 colon
# UO-31 renal = tested on: UO-31 renal
# HCC-2998 colon = tested on: HCC-2998 colon
# UACC-62 melanoma = tested on: UACC-62 melanoma
# SN12C renal = tested on: SN12C renal
# A549 NSCLC = tested on: A549 NSCLC
# HOP-92 NSCLC = tested on: HOP-92 NSCLC
# SR leukemia = tested on: SR leukemia
# IGROV1 ovarian = tested on: IGROV1 ovarian
# HL-60(TB) leukemia = tested on: HL-60(TB) leukemia
# SNB-75 CNS = tested on: SNB-75 CNS
# OVCAR-4 ovarian = tested on: OVCAR-4 ovarian
# MDA-MB-435 = tested on: MDA-MB-435
# 786-0 renal = tested on: 786-0 renal
# CAKI-1 renal = tested on: CAKI-1 renal
# MCF7 breast = tested on: MCF7 breast
# SF-295 CNS = tested on: SF-295 CNS
# LOX IMVI melanoma = tested on: LOX IMVI melanoma
# SK-MEL-5 melanoma = tested on: SK-MEL-5 melanoma
# SNB-19 CNS = tested on: SNB-19 CNS
# SF-268 CNS = tested on: SF-268 CNS
# HOP-62 NSCLC = tested on: HOP-62 NSCLC
# MDA-N = tested on: MDA-N
# NCI-H226 lung = tested on: NCI-H226 lung
# TK-10 renal = tested on: TK-10 renal
# HT29 colon = tested on: HT29 colon
# HCT-116 colon = tested on: HCT-116 colon
# UACC-257 melanoma = tested on: UACC-257 melanoma
# SW-620 colon = tested on: SW-620 colon
# K-562 leukemia = tested on: K-562 leukemia
# SK-MEL-28 melanoma = tested on: SK-MEL-28 melanoma
# OVCAR-8 ovarian = tested on: OVCAR-8 ovarian
# SK-OV-3 ovarian = tested on: SK-OV-3 ovarian
# A498 renal = tested on: A498 renal
smiles,measurement,setting,value
COc1cc(/C=C2\CCC(C)C3=C(c4cc(OC)c(OC)c(OC)c4)C(C#N)=C(N)OC32)cc(OC)c1OC (configuration not stated),TGI,MOLT-4 leukemia,> 49 µM
same,TGI,DU-145 prostate,> 100 µM
same,TGI,NCI-H522 lung,7.75 µM
same,TGI,MDA-MB-231 breast,10.9 µM
same,TGI,OVCAR-3 ovarian,> 60.1 µM
same,TGI,HS 578T breast,14.6 µM
same,TGI,T-47D breast,12.9 µM
same,TGI,RPMI-8226 leukemia,6.08 µM
same,TGI,CCRF-CEM leukemia,26.2 µM
same,TGI,NCI-H460 lung,> 100 µM
same,TGI,BT-549 breast,> 100 µM
same,TGI,PC-3 prostate,24.8 µM
same,TGI,MALME-3M melanoma,9.03 µM
same,TGI,RXF 393 renal,4.36 µM
same,TGI,EKVX NSCLC,47.6 µM
same,TGI,NCI-H23 lung,> 100 µM
same,TGI,M14 melanoma,6.92 µM
same,TGI,SF-539 CNS,4.98 µM
same,TGI,U251 CNS,25.7 µM
same,TGI,ACHN renal,> 65.6 µM
same,TGI,COLO 205 colon,5.48 µM
same,TGI,KM12 colon,36.8 µM
same,TGI,NCI/ADR-RES ovarian,99.2 µM
same,TGI,SK-MEL-2 melanoma,4.46 µM
same,TGI,OVCAR-5 ovarian,> 64.6 µM
same,TGI,HCT-15 colon,> 68.2 µM
same,TGI,UO-31 renal,> 100 µM
same,TGI,HCC-2998 colon,32.5 µM
same,TGI,UACC-62 melanoma,23.2 µM
same,TGI,SN12C renal,> 60.6 µM
same,TGI,A549 NSCLC,> 100 µM
same,TGI,HOP-92 NSCLC,> 31.3 µM
same,TGI,SR leukemia,> 37.8 µM
same,TGI,IGROV1 ovarian,> 52.3 µM
same,TGI,HL-60(TB) leukemia,> 25 µM
same,TGI,SNB-75 CNS,9.24 µM
same,TGI,OVCAR-4 ovarian,> 59.6 µM
same,TGI,MDA-MB-435,21.6 µM
same,TGI,786-0 renal,8.83 µM
same,TGI,CAKI-1 renal,> 65.2 µM
same,TGI,MCF7 breast,7.4 µM
same,TGI,SF-295 CNS,> 40.6 µM
same,TGI,LOX IMVI melanoma,8.99 µM
same,TGI,SK-MEL-5 melanoma,7.24 µM
same,TGI,SNB-19 CNS,> 100 µM
same,TGI,SF-268 CNS,> 100 µM
same,TGI,HOP-62 NSCLC,> 100 µM
same,TGI,MDA-N,21.9 µM
same,TGI,NCI-H226 lung,6.96 µM
same,TGI,TK-10 renal,> 100 µM
same,TGI,HT29 colon,5.02 µM
same,TGI,HCT-116 colon,11.3 µM
same,TGI,UACC-257 melanoma,> 65.4 µM
same,TGI,SW-620 colon,> 100 µM
same,TGI,K-562 leukemia,> 100 µM
same,TGI,SK-MEL-28 melanoma,13.9 µM
same,TGI,OVCAR-8 ovarian,> 73 µM
same,TGI,SK-OV-3 ovarian,> 57.2 µM
same,TGI,A498 renal,> 53.4 µM
CC(O)C1(CNc2cc(Cl)nc(N)n2)CCCC1 (configuration not stated),TGI,MOLT-4 leukemia,> 100 µM
same,TGI,DU-145 prostate,> 100 µM
same,TGI,NCI-H522 lung,> 100 µM
same,TGI,MDA-MB-231 breast,> 100 µM
same,TGI,OVCAR-3 ovarian,> 100 µM
same,TGI,HS 578T breast,> 100 µM
same,TGI,T-47D breast,> 100 µM
same,TGI,RPMI-8226 leukemia,> 100 µM
same,TGI,CCRF-CEM leukemia,> 100 µM
same,TGI,NCI-H460 lung,> 100 µM
same,TGI,BT-549 breast,> 100 µM
same,TGI,PC-3 prostate,> 100 µM
same,TGI,MALME-3M melanoma,> 100 µM
same,TGI,RXF 393 renal,> 100 µM
same,TGI,EKVX NSCLC,> 100 µM
same,TGI,NCI-H23 lung,> 100 µM
same,TGI,M14 melanoma,> 100 µM
same,TGI,SF-539 CNS,> 100 µM
same,TGI,U251 CNS,> 100 µM
same,TGI,ACHN renal,> 100 µM
same,TGI,COLO 205 colon,> 100 µM
same,TGI,KM12 colon,> 100 µM
same,TGI,NCI/ADR-RES ovarian,> 100 µM
same,TGI,SK-MEL-2 melanoma,> 100 µM
same,TGI,OVCAR-5 ovarian,> 100 µM
same,TGI,HCT-15 colon,> 100 µM
same,TGI,UO-31 renal,> 100 µM
same,TGI,HCC-2998 colon,> 100 µM
same,TGI,UACC-62 melanoma,> 100 µM
same,TGI,SN12C renal,> 100 µM
same,TGI,A549 NSCLC,> 100 µM
same,TGI,HOP-92 NSCLC,> 100 µM
same,TGI,SR leukemia,> 100 µM
same,TGI,IGROV1 ovarian,> 100 µM
same,TGI,HL-60(TB) leukemia,> 100 µM
same,TGI,SNB-75 CNS,> 100 µM
same,TGI,OVCAR-4 ovarian,> 100 µM
same,TGI,MDA-MB-435,> 100 µM
same,TGI,786-0 renal,> 100 µM
same,TGI,CAKI-1 renal,> 100 µM
same,TGI,MCF7 breast,> 100 µM
same,TGI,SF-295 CNS,> 100 µM
same,TGI,LOX IMVI melanoma,> 100 µM
same,TGI,SK-MEL-5 melanoma,> 100 µM
same,TGI,SNB-19 CNS,> 100 µM
same,TGI,SF-268 CNS,> 100 µM
same,TGI,HOP-62 NSCLC,> 100 µM
same,TGI,MDA-N,> 100 µM
same,TGI,NCI-H226 lung,> 100 µM
same,TGI,TK-10 renal,> 100 µM
same,TGI,HT29 colon,> 100 µM
same,TGI,HCT-116 colon,> 100 µM
same,TGI,UACC-257 melanoma,> 100 µM
same,TGI,SW-620 colon,> 100 µM
same,TGI,K-562 leukemia,> 100 µM
same,TGI,SK-MEL-28 melanoma,> 100 µM
same,TGI,OVCAR-8 ovarian,> 100 µM
same,TGI,SK-OV-3 ovarian,> 100 µM
same,TGI,A498 renal,> 100 µM
C=C(CC[C@@H](C)[C@H]1CC[C@H]2[C@@H]3C[C@@H](O)[C@H]4C[C@@H](O)CC[C@]4(CO)[C@H]3CC[C@]12C)C(C)C,TGI,MOLT-4 leukemia,10.8 µM
same,TGI,DU-145 prostate,10 µM
same,TGI,NCI-H522 lung,11.1 µM
same,TGI,MDA-MB-231 breast,10.4 µM
same,TGI,OVCAR-3 ovarian,8.77 µM
same,TGI,HS 578T breast,12.4 µM
same,TGI,T-47D breast,8.47 µM
same,TGI,RPMI-8226 leukemia,11.6 µM
same,TGI,CCRF-CEM leukemia,10.5 µM
same,TGI,NCI-H460 lung,7.14 µM
same,TGI,BT-549 breast,15 µM
same,TGI,PC-3 prostate,10.8 µM
same,TGI,MALME-3M melanoma,12.8 µM
same,TGI,RXF 393 renal,8.42 µM
same,TGI,EKVX NSCLC,4.34 µM
same,TGI,NCI-H23 lung,12 µM
same,TGI,M14 melanoma,14.7 µM
same,TGI,SF-539 CNS,20.6 µM
same,TGI,U251 CNS,13 µM
same,TGI,ACHN renal,12 µM
same,TGI,COLO 205 colon,15.8 µM
same,TGI,KM12 colon,8.01 µM
same,TGI,NCI/ADR-RES ovarian,12.2 µM
same,TGI,SK-MEL-2 melanoma,13.9 µM
same,TGI,OVCAR-5 ovarian,13.3 µM
same,TGI,HCT-15 colon,8.27 µM
same,TGI,UO-31 renal,11.1 µM
same,TGI,HCC-2998 colon,6.33 µM
same,TGI,UACC-62 melanoma,15 µM
same,TGI,SN12C renal,12.6 µM
same,TGI,A549 NSCLC,11.1 µM
same,TGI,HOP-92 NSCLC,15.5 µM
same,TGI,SR leukemia,9.77 µM
same,TGI,IGROV1 ovarian,12.6 µM
same,TGI,HL-60(TB) leukemia,14.9 µM
same,TGI,SNB-75 CNS,15.1 µM
same,TGI,OVCAR-4 ovarian,13.4 µM
same,TGI,MDA-MB-435,14.2 µM
same,TGI,786-0 renal,11.1 µM
same,TGI,CAKI-1 renal,11.8 µM
same,TGI,MCF7 breast,9.53 µM
same,TGI,SF-295 CNS,17.1 µM
same,TGI,LOX IMVI melanoma,9 µM
same,TGI,SK-MEL-5 melanoma,15.9 µM
same,TGI,SNB-19 CNS,15.3 µM
same,TGI,SF-268 CNS,12.6 µM
same,TGI,HOP-62 NSCLC,14.8 µM
same,TGI,MDA-N,15.6 µM
same,TGI,NCI-H226 lung,18.4 µM
same,TGI,TK-10 renal,5.47 µM
same,TGI,HT29 colon,7.91 µM
same,TGI,HCT-116 colon,8.91 µM
same,TGI,UACC-257 melanoma,14.8 µM
same,TGI,SW-620 colon,16.5 µM
same,TGI,K-562 leukemia,6.92 µM
same,TGI,SK-MEL-28 melanoma,10.3 µM
same,TGI,OVCAR-8 ovarian,12.5 µM
same,TGI,SK-OV-3 ovarian,16.3 µM
same,TGI,A498 renal,13.3 µM
